Results published in PubChem BioAssay (NCI).
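Briefly, cells in 96-well plates were exposed to five compound concentrations for 48 h, and endpoints were estimated by linear interpolation. TGI: total growth inhibition.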

How the values were obtained:
Assay in all cases: NCI anticancer screen, dose series, 48 h
PC-3 prostate = tested on: PC-3 prostate
NCI-H522 lung = tested on: NCI-H522 lung
MALME-3M melanoma = tested on: MALME-3M melanoma
MCF7 breast = tested on: MCF7 breast
SF-268 CNS = tested on: SF-268 CNS
HT29 colon = tested on: HT29 colon
SK-OV-3 ovarian = tested on: SK-OV-3 ovarian
MDA-N = tested on: MDA-N
HOP-62 NSCLC = tested on: HOP-62 NSCLC
ACHN renal = tested on: ACHN renal
MDA-MB-435 = tested on: MDA-MB-435
UACC-257 melanoma = tested on: UACC-257 melanoma
U251 CNS = tested on: U251 CNS
HCT-15 colon = tested on: HCT-15 colon
A549 NSCLC = tested on: A549 NSCLC
T-47D breast = tested on: T-47D breast
NCI/ADR-RES ovarian = tested on: NCI/ADR-RES ovarian
COLO 205 colon = tested on: COLO 205 colon
SNB-19 CNS = tested on: SNB-19 CNS
M14 melanoma = tested on: M14 melanoma
A498 renal = tested on: A498 renal
CCRF-CEM leukemia = tested on: CCRF-CEM leukemia
OVCAR-5 ovarian = tested on: OVCAR-5 ovarian
IGROV1 ovarian = tested on: IGROV1 ovarian
SW-620 colon = tested on: SW-620 colon
OVCAR-3 ovarian = tested on: OVCAR-3 ovarian
DU-145 prostate = tested on: DU-145 prostate
SK-MEL-28 melanoma = tested on: SK-MEL-28 melanoma
EKVX NSCLC = tested on: EKVX NSCLC
MDA-MB-231 breast = tested on: MDA-MB-231 breast
HCT-116 colon = tested on: HCT-116 colon
CAKI-1 renal = tested on: CAKI-1 renal
SK-MEL-5 melanoma = tested on: SK-MEL-5 melanoma
K-562 leukemia = tested on: K-562 leukemia
UACC-62 melanoma = tested on: UACC-62 melanoma
LOX IMVI melanoma = tested on: LOX IMVI melanoma
SF-295 CNS = tested on: SF-295 CNS
NCI-H460 lung = tested on: NCI-H460 lung
TK-10 renal = tested on: TK-10 renal
UO-31 renal = tested on: UO-31 renal

## COc1ccc(-c2oc3ccccc3c(=O)c2O)cc1OC
PC-3 prostate
  TGI: > 100 µM
NCI-H522 lung
  TGI: > 100 µM
MALME-3M melanoma
  TGI: > 100 µM
MCF7 breast
  TGI: > 100 µM
SF-268 CNS
  TGI: 53 µM
HT29 colon
  TGI: > 100 µM
SK-OV-3 ovarian
  TGI: > 100 µM
MDA-N
  TGI: > 100 µM
HOP-62 NSCLC
  TGI: 47.4 µM
ACHN renal
  TGI: > 100 µM
MDA-MB-435
  TGI: > 100 µM
UACC-257 melanoma
  TGI: > 100 µM
U251 CNS
  TGI: 23.4 µM
HCT-15 colon
  TGI: > 100 µM
A549 NSCLC
  TGI: > 100 µM
T-47D breast
  TGI: > 100 µM
NCI/ADR-RES ovarian
  TGI: > 100 µM
COLO 205 colon
  TGI: > 100 µM
SNB-19 CNS
  TGI: > 100 µM
M14 melanoma
  TGI: > 100 µM
A498 renal
  TGI: 71.5 µM
CCRF-CEM leukemia
  TGI: > 100 µM
OVCAR-5 ovarian
  TGI: > 100 µM
IGROV1 ovarian
  TGI: > 100 µM
SW-620 colon
  TGI: > 100 µM
OVCAR-3 ovarian
  TGI: > 100 µM
DU-145 prostate
  TGI: > 100 µM
SK-MEL-28 melanoma
  TGI: > 100 µM
EKVX NSCLC
  TGI: > 100 µM
MDA-MB-231 breast
  TGI: > 100 µM
HCT-116 colon
  TGI: > 100 µM
CAKI-1 renal
  TGI: > 100 µM
SK-MEL-5 melanoma
  TGI: > 100 µM
K-562 leukemia
  TGI: > 100 µM
UACC-62 melanoma
  TGI: > 100 µM
LOX IMVI melanoma
  TGI: > 100 µM
SF-295 CNS
  TGI: 35.1 µM
NCI-H460 lung
  TGI: > 100 µM
TK-10 renal
  TGI: 76.8 µM
UO-31 renal
  TGI: > 100 µM
